Test system: mouse sperm
Assay: Phage combinatorial peptide library screening of intact live sperm
Conditions: live CB6F1 mouse sperm, 4 rounds of binding, amplification and selection, Ph.D-7 and Ph.D-12 libraries
Description: A mouse sperm suspension was isolated from cauda epididymides of fertile male CB6F1 mice. Briefly, the epididymides and vas deferens were dissected in a 35 mm dish containing 5 ml of CZB (pre-equilibrated at 37° C. and 5% CO2) and gently compressed to release sperm. Following a 10 minute incubation period, the epididimydes were removed and the sperm suspension incubated for a further 30 minute period. A 500 ul aliquot of the sperm suspension was removed from the top layer of media and placed in a 1.5 ml centrifuge tube. A 3 ul volume of phage combinatorial peptide library was added to this tube and the suspension incubated for 1 hour at 37 degrees. Following incubation, the sperm suspension was washed as follows. The suspension was centrifuged in a tabletop microcentrifuge at maximum speed for 1 minute and the majority of the supernatant removed. The remaining volume was re-suspended in 1 ml of media via pipetting and separated into two 500 ul aliquots in two 15 ml centrifuge tubes. A further 14 ml of CZB wash media was added to these tubes followed by 15 min incubation at room temperature. The tubes were centrifuged at 1000 g for 5 minutes and the supernatant removed down to an approximate 50 ul volume. […]
Phage DNA was isolated by several different methods. […] DNA quality and quantity was determined via agarose gel electrophoresis on vertical mini-gels with novel illumination and filters. […]

Substance: HIPRTY
- binding sequence selected from combinatorial libraries: binding sequence of mouse sperm

— patent publication US20060052283A1, “The Sperm Binding Ligand HIPRTY and Its Involvement in Embryo Cleavage” (priority 2004, published 2006)
